According to US20090062369A1, “USE OF SECRETORY PHOSPHOLIPASE A2 (SPLA2) INHIBITORS TO DECREASE SPLA2 LEVELS” (priority 2007, published 2009):

Tested on: serum sPLA2
Assay: Effect of twice-a-day oral A-002 on serum sPLA2 levels in subjects with stable coronary artery disease (Example 6)
Assay type: in vivo, human
Protocol: The protocol for preparing standard curve, test, and quality control samples for use in the assay disclosed herein is set forth in Example 5. Samples are prepared according to this protocol, then loaded in duplicate onto a plate (Cayman catalog no. 485002 or equivalent) that has been pre-coated with a monoclonal sPLA2 antibody (“capture antibody”) that specifically binds sPLA2. In certain embodiments, the capture antibody may interact with a specific form of sPLA2, such as for example sPLA2 type IIA.
sPLA2 acetylcholinesterase:Fab′ conjugate (AChE:Fab′) (“conjugate”) (Cayman catalog no. 485000 or equivalent) is reconstituted in EIA buffer (Cayman catalog no. 400060 or equivalent). Cayman EIA buffer is 1M phosphate, pH 7.0, 1% BSA, 4M NaCl, 10 mM EDTA, and 0.1% sodium azide. Reconstituted conjugate is added to each well of the plate. The conjugate binds a different sPLA2 epitope than the capture antibody, allowing the capture antibody and the conjugate to form a “sandwich” that is immobilized on the plate. Excess reagents are washed away, and the plate is covered and incubated overnight at 2-8° C.
Prior to development, the wells are washed five to six times with wash buffer (Cayman catalog no. 400062 or equivalent). To develop the plate, Ellman's Reagent (Cayman catalog no. 400050 or equivalent) is reconstituted in water and added to each well according to manufacturer instructions. The reconstituted Ellman's Reagent must be used the same day it is prepared because it is unstable. Ellman's Reagent contains an AChE substrate. Specifically, Ellman's Reagent contains acetylthiocholine and 5,5′-dithio-bis-(2-nitrobenzoic acid). Hydrolysis of acetylthiocholine by acetylcholinesterase produces thiocholine, which reacts with 5,5′-dithio-bis-(2-nitrobenzoic acid) to produce 5-thio-2-nitrobenzoic acid. 5-thio-2-nitrobenzoic acid has a strong absorbance at 412 nm. The intensity of absorbance at this wavelength is directly proportional to the concentration of bound conjugate, which is in turn is directly proportional to the concentration of sPLA2 present (Absorbance a [AChE:Fab′ conjugate] α [sPLA2]). During the development step, the plate is shaken, preferably in the dark. In certain embodiments the development time for the assay is 0.5 to 3 hours, preferably 1 to 1.5 hours. At the end of the development period, the high sPLA2 standards should have greater yellow color development than the zero standards. Absorbance of each well is measured at 400-420 nm using a micro-well plate reader. In certain embodiments, absorbance is measured at about 405 nm.
Absorbance readings for duplicate wells are averaged, and the relative standard deviation and % CV are calculated. Standard curve data are used to generate a four parameter curve, and quality control and test samples are measured against the appropriate standard curve (i.e., the standard curve with the same serum content). In order for a test to be considered valid, variation between duplicate wells should be no more than about 25%, and negative controls (blanks) for each standard curve should have a mean absorbance of less than about 0.3.
The method disclosed herein for measuring sPLA2 levels in serum was utilized to determine the effect of administering certain sPLA2 inhibitors on sPLA2 levels in 84 human subjects. The subjects included 24 subjects with diabetes, 32 subjects with metabolic syndrome, and 75 subjects receiving statin treatment. Subjects were administered the sPLA2 inhibitor A-002, a prodrug form of A-001, twice a day at varying dosages from 50 to 500 mg. The structures of A-002and A-001 are set forth below. At two weeks and four weeks after the first administration, sPLA2 levels were measured and compared to pre-administration baseline levels.
84 subjects with stable coronary artery disease were randomized to receive placebo or A-002 via oral administration twice a day over a four week administration period. […]

[1] = 500 mg, non-diabetes subgroup of ITT population
[2] = 500 mg, statin subgroup of ITT population
[3] = A-002 (50 mg), ITT subjects exhibiting at least 3 out of 5 metabolic syndrome criteria
[4] = A-002 (50 mg), non-statin subgroup of ITT population
[5] = A-002 (100 mg), ITT subjects exhibiting at least 3 out of 5 metabolic syndrome criteria
[6] = A-002 (100 mg), non-statin subgroup of ITT population

CCc1c(C(=O)C(N)=O)c2c(OCC(=O)OC)cccc2n1Cc1ccccc1 [A-002, [[3-(2-Amino-1,2-dioxoethyl)-2-ethyl-1-(phenylmethyl)-1H-indol-4-yl]oxy]acetic acid methyl ester]
sPLA2 level, Week 2, Range [1]: 0.05 to 0.50 ng/mL | sPLA2 level, Week 4, Mean [1]: 0.13 ng/mL | sPLA2 level, Week 4, Median [1]: 0.05 ng/mL | sPLA2 level, Week 4, Range [1]: 0.05 to 0.40 ng/mL | sPLA2 Change from baseline at week 2, Mean [2]: -2.93 ng/mL | sPLA2 Change from baseline at week 2, Median [2]: -3.30 ng/mL | sPLA2 Change from baseline at week 2, Range [2]: -4.80 to -0.55 ng/mL | sPLA2 Change from baseline at week 4, Mean [2]: -2.99 ng/mL | sPLA2 Change from baseline at week 4, Median [2]: -3.50 ng/mL | sPLA2 Change from baseline at week 4, Range [2]: -4.80 to -0.55 ng/mL | sPLA2 level, Baseline, Mean [2]: 3.05 ng/mL | sPLA2 level, Baseline, Median [2]: 3.00 ng/mL | sPLA2 level, Baseline, Range [2]: 0.60 to 5.40 ng/mL | sPLA2 level, Week 2, Mean [2]: 0.20 ng/mL | sPLA2 level, Week 2, Median [2]: 0.10 ng/mL | sPLA2 level, Week 2, Range [2]: 0.05 to 0.60 ng/mL | sPLA2 level, Week 4, Mean [2]: 0.14 ng/mL | sPLA2 level, Week 4, Median [2]: 0.05 ng/mL | sPLA2 level, Week 4, Range [2]: 0.05 to 0.60 ng/mL | sPLA2 level, Baseline, Mean [3]: 3.47 ng/mL | sPLA2 level, Baseline, Median [3]: 2.70 ng/mL | sPLA2 level, Baseline, Range [3]: 0.80 to 8.80 ng/mL | sPLA2 level, Change from baseline at week 2, Mean [3]: -2.89 ng/mL | sPLA2 level, Change from baseline at week 2, Median [3]: -2.50 ng/mL | sPLA2 level, Change from baseline at week 2, Range [3]: -5.30 to -0.60 ng/mL | sPLA2 level, Change from baseline at week 4, Mean [3]: -2.76 ng/mL | sPLA2 level, Change from baseline at week 4, Median [3]: -2.15 ng/mL | sPLA2 level, Change from baseline at week 4, Range [3]: -6.40 to -0.60 ng/mL | sPLA2 level, Week 2, Mean [3]: 0.96 ng/mL | sPLA2 level, Week 2, Median [3]: 0.30 ng/mL | sPLA2 level, Week 2, Range [3]: 0.20 to 4.00 ng/mL | sPLA2 level, Week 4, Mean [3]: 0.81 ng/mL | sPLA2 level, Week 4, Median [3]: 0.65 ng/mL | sPLA2 level, Week 4, Range [3]: 0.10 to 2.40 ng/mL | sPLA2 level, Baseline, Mean [4]: 1.80 ng/mL | sPLA2 level, Baseline, Median [4]: 1.80 ng/mL | sPLA2 level, Baseline, Range [4]: 1.80 to 1.80 ng/ml | sPLA2 level, Baseline, Mean [5]: 2.97 ng/mL | sPLA2 level, Baseline, Median [5]: 2.20 ng/mL | sPLA2 level, Baseline, Range [5]: 0.05 to 6.00 ng/mL | sPLA2 level, Change from baseline at week 2, Mean [5]: -1.01 ng/mL | sPLA2 level, Change from baseline at week 2, Median [5]: -1.80 ng/mL | sPLA2 level, Change from baseline at week 2, Range [5]: −3.30 to +2.85 ng/ml | sPLA2 level, Change from baseline at week 4, Mean [5]: -2.78 ng/mL | sPLA2 level, Change from baseline at week 4, Median [5]: -2.70 ng/mL | sPLA2 level, Change from baseline at week 4, Range [5]: -5.70 to 0.00 ng/mL | sPLA2 level, Week 2, Mean [5]: 1.20 ng/mL | sPLA2 level, Week 2, Median [5]: 0.80 ng/mL | sPLA2 level, Week 2, Range [5]: 0.30 to 2.90 ng/mL | sPLA2 level, Week 4, Mean [5]: 0.41 ng/mL | sPLA2 level, Week 4, Median [5]: 0.30 ng/mL | sPLA2 level, Week 4, Range [5]: 0.05 to 1.00 ng/mL | sPLA2 level, Baseline, Mean [6]: 3.85 ng/mL | sPLA2 level, Baseline, Median [6]: 3.85 ng/mL | sPLA2 level, Baseline, Range [6]: 2.80 to 4.90 ng/mL
